Source: patent US5464617A, “β-lactam compounds” (Hoffmann-La Roche Inc., priority 1994, dated 1995)
Converted amounts (≈) assume the structure as drawn. Counter-ions that a name gives are not always drawn. Like-named read-outs stand apart in the source and are kept apart here.

Legend:
[1] = tested on: Citrobacter freundii 1982; experiment: MIC in vitro of a 1:4 combination of ceftriaxone with a compound of formula I (Test D); type: cell-based; details: Table 2; ceftriaxone alone (control)
β-lactamase = β-lactamase (Citrobacter freundii, UniProt P05193); experiment: Determination of the β-lactamase inhibiting activity (Test C): inhibition of nitrocefin cleavage by isolated β-lactamase; type: biochemical, Citrobacter freundii 1982; details: pH 7.0, 37° C.
Method: Various β-lactamases can be isolated from penicillin- or cephalosporin-resistant bacterial strains such as Klebsiella pneumoniae NCTC 418, Proteus vulgaris 1028, Bacillus licheniformis 749/C, Escherichia coli SNO1, Pseudomonas aeruginosa 18SH and Citrobacter freundii 1203. For this purpose, the corresponding strains are cultivated in Tryptic Soy Broth (Difco) and harvested by centrifugation in the last logarithmic growth phase (when necessary 50-100 mg/l of ampicillin are added to the medium towards the end of the log-phase in order to induce the β-lactamase). The thus-obtained bacterial mass is treated with 20 mM Tris-HCl buffer (pH 7.0); the cells are broken open with a French press while cooling. The mixture is centrifuged (20,000 r/min.) for 20-30 minutes and a clear crude extract is obtained. The purification of the proteins is effected according to the method of Cartwright, S. J. & Waley, S. G. [Biochem. J. 221, 505-512 (1980)] and, for B. lichenformis, Ellerby, L. M. et al. [Biochemistry 29, 5797-5806 (1990)].
The determination of the activity of the isolated β-lactamases can be carried out according to the method of O'Callaghan, C. H. et al. [Antimicr. Ag. Chemother. […] The cleavage of the substrate, which is accompanied by a change in colour, is effected at 37° C. and is followed quantitatively at 482 nm using a spectral photometer. […]

[2] = tested on: Citrobacter freundii 1982; experiment: MIC in vitro of a 1:4 combination of ceftriaxone with a compound of formula I (Test D); type: cell-based; details: for MIC C. freundii 1982 (D): test D
Method: The minimum inhibitory concentration in vitro ([…]) of a 1:4 combination of ceftriaxone with a compound of formula I against Citrobacter freundii 1982 was measured and compiled in Table 2 hereinafter.

E. coli 1346 = experiment: Antibacterial activity of the products per se, serial dilution method in liquid medium (Test E); type: cell-based; details: test E, product per se
Source text: The antibacterial activity of the products per se is illustrated on the basis of Table 3 hereinafter, the minimum inhibitory concentration […] in vitro against E. coli 1346 being determined using the serial dilution method in liquid medium: […]

[3] = Table 4, 1:4 combination of ceftriaxone with the compound

Chain of β-lactamase (P05193 21-381): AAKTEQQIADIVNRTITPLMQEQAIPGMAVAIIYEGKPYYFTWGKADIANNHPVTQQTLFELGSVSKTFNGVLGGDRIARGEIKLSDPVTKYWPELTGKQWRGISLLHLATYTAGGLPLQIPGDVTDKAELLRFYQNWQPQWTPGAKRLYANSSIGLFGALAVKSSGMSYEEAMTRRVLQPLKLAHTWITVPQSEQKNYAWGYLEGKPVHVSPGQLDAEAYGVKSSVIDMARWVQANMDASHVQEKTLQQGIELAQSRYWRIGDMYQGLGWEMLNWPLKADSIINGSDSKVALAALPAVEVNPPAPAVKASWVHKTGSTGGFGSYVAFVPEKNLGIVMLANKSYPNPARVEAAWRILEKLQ

Molecule	MIC C. freundii 1982 (D) [2, 3]	MIC E. coli 1346 (E) (E. coli 1346; Table 4)	further results
CO/N=C(\C(=O)N[C@@H]1C(=O)N2C(C(=O)O)=C(CSc3nc(=O)c(=O)[nH]n3C)CS[C@H]12)c1csc(N)n1 [Ceftriaxone, ceftriaxone]			MIC C. freundii 1982 [1]: 128 µg/mL
(1aS,3aR,6bS)-5-(Carbamoyloxymethyl)-2-(4-hydroxyphenylcarbamoyl)-1-oxo-1,1a,2,3,3a,6b-hexahydro-4-oxa-2,6a-diazacyclobut[cd]indene-6-carboxylic acid sodium salt [31(g)]	16 µg/mL	0,5 μg/ml	IC50 (β-lactamase; Table 4, test C, nitrocefin, 15 minutes pre-incubation, read-out: IC 50 (C)): 51 µM
(1aS,3aR,6bR)-2-[(R)- and [(S)-1,1-Dioxo-tetrahydrothien-3-ylcarbamoyl]-5-methylsulphonyloxy-1-oxo-1a,2,3,3a,4,6b-hexahydro-1H-2,6a-diazacyclobut[cd]indene-6-carboxylic acid sodium salt [9(g)]			IC50 (β-lactamase; Table 1, nitrocefin substrate, 15 minutes pre-incubation of β-lactamase with inhibitor, read-out: IC 50): 0.027 µM; MIC C. freundii 1982 ([2]; Table 2, 1:4 combination of ceftriaxone with the compound): 0.25 µg/mL
Cn1nnnc1SCC1=C(C(=O)O)N2C(=O)[C@@H]3[C@H]2[C@H](C1)CN3S(C)(=O)=O [Example 19(e), (1aS,3aR,6bR)-2-Methylsulphonyl-5-(1-methyl-1H-tetrazol-5-ylsulphanylmethyl)-1-oxo-1a,2,3,3a,4,6b-hexahydro-1H-2,6a-diazacyclobut[cd]indene-6-carboxylic acid sodium salt]			MIC C. freundii 1982 (D) ([2]; Table 5, particularly preferred products, 1:4 combination with ceftriaxone): 0.25 µg/mL; MIC E. coli 1346 (E) (E. coli 1346; Table 5, particularly preferred products): 1 µg/mL

More lines, main results first:

MIC C. freundii 1982 (D) [2, 3]	MIC E. coli 1346 (E) (E. coli 1346; Table 4)	Molecule	further results
4 µg/mL	4 µg/mL	CC(=O)N1C[C@H]2CC(Sc3nnc(N)s3)=C(C(=O)O)N3C(=O)[C@@H]1[C@@H]23 [3(ae), (1aS,3aR,6bR)-2-Acetyl-5-(5-amino-1,3,4-thiadiazol-2-ylsulphanyl)-1-oxo-1a,2,3,3a,4,6b-hexahydro-1H-2,6a-diazacyclobut[cd]indene-6-carboxylic acid sodium salt]	
1 µg/mL	32 µg/mL (≈ 89.5 µM)	Nc1nnc(SCC2=C(C(=O)O)N3C(=O)[C@H]4NC[C@@H](S2)[C@H]43)s1 [40(e), (1aS,3aR,6bS)-5-(5-Amino-1,3,4-thiadiazol-2-ylsulphanylmethyl)-1-oxo-4-thia-1,1a,2,3,3a,6b-hexahydro-2,6a-diazacyclobut[cd]indene-6-carboxylic acid]	
